Here are results for 2 molecules from patent US20240148672A1, “ORAL THIN FILM” (LTS LOHMANN THERAPIE-SYSTEME AG, priority 2021, published 2024).

Series [1] in a line: pH value of oral thin film dissolved in demineralised water. In kind it is physicochemical. As to conditions: Measured as dissolved OTF in demineralised water temperature-controlled to 32° C. (blank value pH 7.12). As for the experimental part: Oral thin films of the composition according to Table 1 were prepared as follows. The active ingredient or the active ingredient mixture was presented and an aqueous solution of the matrix polymer was added. The remaining ingredients were then stirred in. The solution was spread and dried in order to obtain an oral thin film.

The conditions of series [2]: (S)-ketamine versus (R) form; cited from earlier work.

Counter-ions that a name gives are not always drawn.

Consider `CNC1(c2ccccc2Cl)CCCCC1=O` (centres unmarked) [ketamine hydrochloride], for which, in series [1], the pH-value was 5.32.

For the molecule `CNC1(c2ccccc2Cl)CCCCC1=O` (racemic) [(S)-ketamine, (S)-(±)-2-(2-chlorophenyl)-2-(methylamino)cyclohexan-1-one], the “analgesic and anaesthetic potency relative to the (R) form” value in series [2] is on record as “approximately three times higher”.
